SMILES strings stand for the structures. Where “and” joins values, the source holds several entries; their conditions need not be identical. Identical values can stand only once. Inconclusive results and toxic doses are left out.

This assay has as its system BDF1 mice, B16 melanoma ip, median survival T/C. The experiment in a line: NCI In Vivo Anticancer Drug Screen. Data for tumor model B16 Melanoma (intraperitoneal) in B6D2F1 (BDF1) mice. Conditions: endpoint: median survival time, higher = longer survival. In short, it runs like this:
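Transplantable tumor model; survival or tumor size measured; reported as T/C, treated over vehicle control.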

Setting [1] is: dose: 50.0 mg/kg/injection, schedule: Q01DX009 (ip), vehicle: saline with Tween-80.
Where [2] appears, read: dose: 100.0 mg/kg/injection, schedule: Q01DX009 (ip), vehicle: saline with Tween-80.
[3] abbreviates: dose: 200.0 mg/kg/injection, schedule: Q01DX009 (ip), vehicle: saline with Tween-80.
Setting [4] is: dose: 400.0 mg/kg/injection, schedule: Q01DX009 (ip), vehicle: saline with Tween-80.
Setting [5] is: dose: 12.5 mg/kg/injection, schedule: Q01DX009 (ip), vehicle: saline.
Where [6] appears, read: dose: 25.0 mg/kg/injection, schedule: Q01DX009 (ip), vehicle: saline.
[7] abbreviates: dose: 50.0 mg/kg/injection, schedule: Q01DX009 (ip), vehicle: saline.
Where [8] appears, read: dose: 100.0 mg/kg/injection, schedule: Q01DX009 (ip), vehicle: saline.
Setting [9] is: dose: 200.0 mg/kg/injection, schedule: Q01DX009 (ip), vehicle: saline.
Setting [10] is: dose: 400.0 mg/kg/injection, schedule: Q01DX009 (ip), vehicle: saline.

Take `CC[C@]1(O)C[C@H]2CN(CCc3c([nH]c4ccccc34)[C@@](C(=O)OC)(c3cc4c(cc3OC)N(C=O)[C@H]3[C@@](O)(C(=O)OC)[C@H](OC(C)=O)[C@]5(CC)C=CCN6CC[C@]43[C@@H]65)C2)C1`: the T/C reads like this: (dose: 0.06 mg/kg/injection, schedule: Q01DX009 (ip), vehicle: saline) 154 % of control; (dose: 0.06 mg/kg/injection, schedule: Q01DX009 (ip), vehicle: water) 168 % of control; (dose: 0.06 mg/kg/injection, schedule: Q01DX017 (ip), vehicle: saline) 156 % of control; (dose: 0.08 mg/kg/injection, schedule: Q01DX009 (ip), vehicle: water) 123 % of control; (dose: 0.12 mg/kg/injection, schedule: Q04DX003 (ip), vehicle: saline) 123 % of control; (dose: 0.13 mg/kg/injection, schedule: Q01DX017 (ip), vehicle: saline) 181 % of control. For the same molecule, the T/C (dose: 0.13 mg/kg/injection, schedule: Q04DX003 (ip), vehicle: saline) is 110 % of control; the T/C (dose: 0.18 mg/kg/injection, schedule: Q01DX005 (ip), vehicle: saline) is 121 % of control; the T/C (dose: 0.2 mg/kg/injection, schedule: Q01DX009 (ip), vehicle: saline) is 152 % of control and 171 % of control; the T/C (dose: 0.23 mg/kg/injection, schedule: Q04DX003 (ip), vehicle: water) is 119 % of control and 121 % of control; the T/C (dose: 0.25 mg/kg/injection, schedule: Q01DX009 (ip), vehicle: water) is 176 % of control and 189 % of control; the T/C (dose: 0.25 mg/kg/injection, schedule: Q01DX017 (ip), vehicle: saline) was 197 % of control. Further, the T/C reads like this: (dose: 0.3 mg/kg/injection, schedule: Q01DX005 (ip), vehicle: saline) 119 % of control; (dose: 0.36 mg/kg/injection, schedule: Q01DX009 (ip), vehicle: water) 163 % of control; (dose: 0.36 mg/kg/injection, schedule: Q04DX003 (ip), vehicle: saline) 114 % of control; (dose: 0.39 mg/kg/injection, schedule: Q04DX003 (ip), vehicle: saline) 124 % of control; (dose: 0.39 mg/kg/injection, schedule: Q04DX003 (ip), vehicle: water) 119 % of control; (dose: 0.4 mg/kg/injection, schedule: Q01DX009 (ip), vehicle: saline) 178 % of control. Moreover, the T/C runs as follows: (dose: 0.5 mg/kg/injection, schedule: Q01DX001 (ip), vehicle: saline) 120 % of control; (dose: 0.5 mg/kg/injection, schedule: Q01DX009 (ip), vehicle: water) 155 % of control and 163 % of control and 192 % of control; (dose: 0.5 mg/kg/injection, schedule: Q04DX003 (ip), vehicle: saline) 154 % of control; (dose: 0.5 mg/kg/injection, schedule: Q04DX005 (ip), vehicle: saline) 163 % of control; (dose: 0.54 mg/kg/injection, schedule: Q04DX003 (ip), vehicle: saline) 157 % of control; (dose: 0.6 mg/kg/injection, schedule: Q04DX003 (ip), vehicle: saline) 150 % of control and 152 % of control and 176 % of control. For the same molecule, the T/C (dose: 0.65 mg/kg/injection, schedule: Q01DX001 (ip), vehicle: water) was 118 % of control and 120 % of control; the T/C (dose: 0.65 mg/kg/injection, schedule: Q04DX003 (ip), vehicle: saline) is 102 % of control; the T/C (dose: 0.75 mg/kg/injection, schedule: Q04DX003 (ip), vehicle: saline) was 152 % of control; the T/C (dose: 0.8 mg/kg/injection, schedule: Q04DX003 (ip), vehicle: water) was 116 % of control; the T/C (dose: 1.0 mg/kg/injection, schedule: Q01DX001 (ip), vehicle: saline) is 120 % of control; the T/C (dose: 1.0 mg/kg/injection, schedule: Q04DX005 (ip), vehicle: saline) is 181 % of control. Also, the T/C by setting is: (dose: 1.08 mg/kg/injection, schedule: Q01DX001 (ip), vehicle: water) 124 % of control; (dose: 1.08 mg/kg/injection, schedule: Q04DX003 (ip), vehicle: saline) 156 % of control; (dose: 1.2 mg/kg/injection, schedule: Q04DX003 (ip), vehicle: saline) 160 % of control and 198 % of control; (dose: 1.5 mg/kg/injection, schedule: Q04DX003 (ip), vehicle: saline) 150 % of control and 158 % of control; (dose: 1.67 mg/kg/injection, schedule: Q04DX003 (ip), vehicle: saline) 54 % of control; (dose: 1.8 mg/kg/injection, schedule: Q01DX001 (ip), vehicle: water) 122 % of control and 124 % of control. Moreover, the T/C runs as follows: (dose: 1.8 mg/kg/injection, schedule: Q04DX003 (ip), vehicle: saline) 159 % of control; (dose: 1.8 mg/kg/injection, schedule: Q04DX003 (ip), vehicle: water) 151 % of control; (dose: 2.0 mg/kg/injection, schedule: Q04DX003 (ip), vehicle: saline) 173 % of control and 180 % of control; (dose: 3.0 mg/kg/injection, schedule: Q04DX003 (ip), vehicle: saline) 67 % of control; (dose: 15.63 micrograms/kg/injection, schedule: Q01DX009 (ip), vehicle: water) 110 % of control; (dose: 62.5 micrograms/kg/injection, schedule: Q01DX009 (ip), vehicle: water) 150 % of control. The T/C was 165 % of control (dose: 78.0 micrograms/kg/injection, schedule: Q01DX009 (ip), vehicle: saline); 123 % of control (dose: 78.0 micrograms/kg/injection, schedule: Q01DX009 (ip), vehicle: water); 159 % of control (dose: 125.0 micrograms/kg/injection, schedule: Q01DX009 (ip), vehicle: water); 157 % of control (dose: 130.0 micrograms/kg/injection, schedule: Q01DX009 (ip), vehicle: saline); 183 % of control (dose: 216.0 micrograms/kg/injection, schedule: Q01DX009 (ip), vehicle: saline); 123 % of control (dose: 216.0 micrograms/kg/injection, schedule: Q04DX003 (ip), vehicle: saline). The T/C runs as follows: (dose: 250.0 micrograms/kg/injection, schedule: Q01DX009 (ip), vehicle: water) 175 % of control; (dose: 360.0 micrograms/kg/injection, schedule: Q01DX009 (ip), vehicle: saline) 160 % of control; (dose: 389.0 micrograms/kg/injection, schedule: Q04DX003 (ip), vehicle: saline) 158 % of control; (dose: 600.0 micrograms/kg/injection, schedule: Q04DX003 (ip), vehicle: saline) 155 % of control; (dose: 648.0 micrograms/kg/injection, schedule: Q04DX003 (ip), vehicle: saline) 153 % of control; (dose: 1000.0 micrograms/kg/injection, schedule: Q04DX003 (ip), vehicle: saline) 152 % of control and 166 % of control. Besides, the T/C by setting is: (dose: 1080.0 micrograms/kg/injection, schedule: Q04DX003 (ip), vehicle: saline) 157 % of control; (dose: 1670.0 micrograms/kg/injection, schedule: Q04DX003 (ip), vehicle: saline) 179 % of control; (dose: 1800.0 micrograms/kg/injection, schedule: Q04DX003 (ip), vehicle: saline) 174 % of control.

`O=C1O/C(=C\c2ccccc2)c2c(Br)c(Br)c(Br)c(Br)c21`: the T/C is 112 % of control under setting [1], 107 % of control under setting [2], 112 % of control under setting [3] and 112 % of control under setting [4].

As for `OCC1OC(n2cnc3c(Cl)ncnc32)C(O)C1O` (stereo unspecified), the T/C runs as follows: under setting [5], 123 % of control; under setting [6], 102 % of control; under setting [7], 108 % of control; under setting [8], 105 % of control; under setting [9], 106 % of control; under setting [10], 106 % of control.

On to `CC1(C)C=C(C(Br)c2ccc(Cl)cc2)C(=O)c2ccccc21` (stereo unspecified), for which the T/C reads like this: under setting [1], 103 % of control; under setting [2], 106 % of control; under setting [3], 99 % of control; under setting [4], 97 % of control.

As for `NC1CONC1=O` (stereo unspecified), the T/C (dose: 6.25 mg/kg/injection, schedule: Q01DX009 (ip), vehicle: saline) was 109 % of control; the T/C under setting [5] is 88 % of control; the T/C under setting [6] was 109 % of control; the T/C under setting [7] was 102 % of control; the T/C under setting [8] was 105 % of control; the T/C under setting [9] is 100 % of control. The T/C under setting [10] was 91 % of control.

Consider `Cc1ccc(CO)cc1C`, for which the T/C by setting is: (dose: 50.0 mg/kg/injection, schedule: Q04DX003 (ip), vehicle: saline with Tween-80) 100 % of control; (dose: 100.0 mg/kg/injection, schedule: Q04DX003 (ip), vehicle: saline with Tween-80) 102 % of control; (dose: 200.0 mg/kg/injection, schedule: Q04DX003 (ip), vehicle: saline with Tween-80) 104 % of control.

These data come from PubChem BioAssay AID192 (DTP/NCI, 2004).
